One compound from US20190209567A1, “A Specific Trifluoroethyl Quinoline Analogue For Use In The Treatment of APDS” (UCB Biopharma SPRL, priority 2016, published 2019) can be followed below.

Data set [1] in a line: APD001 Phase 1b open-label 12-week clinical study in APDS1 and APDS2 patients. Type of data set: in vivo, human. To be noted: 12 weeks of treatment. The source says:
APD001 is an ongoing Phase 1b, multicentre, open-label, 12-week study to assess the efficacy, safety and tolerability of Compound (A) in male and female adolescents (aged from 12 to 18 years) and adults with APDS1 and APDS2.

Data set [2] concerns pS6^S235/236 (PI3K signalling) in T cell subsets in whole blood. Briefly: Ex vivo pS6^S235/236 expression in T cell subsets in whole blood by flow cytometry. Type of data set: cell-based, human. To be noted: for IC50: Homo sapiens, T-cell. Here is the method:
(§1) The activity of N—{(R)-1-[8-Chloro-2-(1-oxypyridin-3-yl)quinolin-3-yl]-2,2,2-trifluoroethyl}pyrido[3,2-d]pyrimidin-4-ylamine [hereinafter referred to as “Compound (A)”] on PI3K signalling was assessed by measuring levels of either phosphorylated serine 473 of AKT (pAKT^S473) or phosphorylated serine 235/236 of ribosomal protein S6 (pS6^S235/236) using flow cytometry. The results obtained are depicted in the accompanying drawings, in which:
The levels of pS6^S235/236 in different T cell (CD3+CD4+; CD3+CD8+) subsets in total blood from healthy donors, and from APDS1 and APDS2 patients, were analyzed by flow cytometry. The blood was incubated ex vivo for 45 minutes at 37° C. with different doses of Compound (A) (0, 10, 30, 100, 300, 1000 and 2000 nM).
The phosphorylation of ribosomal protein S6 at Ser 235/236 (pS6^S235/236) in cells from healthy donors, and from APDS1 and APDS2 patients, was analyzed ex vivo in the presence and absence of Compound (A) (10-2000 nM) in different T cell (CD3+CD4+; CD3+CD8+) subsets. As noted above, total blood was incubated ex vivo for 45 minutes at 37° C.
Data were generated with blood from two (2) healthy donors, three (3) APDS1 patients and one (1) APDS2 patient.

Data set [3] relates to pAKT^S473 (PI3K signalling) in T cell lymphoblasts. The data set can be described thus: pAKT^S473 expression in T cell lymphoblast cultures by flow cytometry, with and without OKT3 activation. It counts as cell-based, human. The following applies: for IC50: Homo sapiens, T-cell. The method, then:
as §1
Analysis of phosphorylated AKT at Ser 473 (pAKT^S473) levels in T cell lymphoblast cultures by flow cytometry was performed with peripheral blood lymphocytes from healthy donors, and from APDS1 and APDS2 patients, with and without T cell receptor activation.
Generation of T cell lymphoblasts was performed in accordance with the method described by M-C. Deau et al. in J. Clin. Invest., 2014, 124, 3923-3928. In brief, peripheral blood mononuclear cells were isolated by Ficoll-Paque density gradient centrifugation (Pharmacia Biotech; catalogue no. #171-44003) and washed twice with RPMI 1640 GlutaMax medium (Invitrogen). T cell lymphoblasts were obtained by stimulating 1×10^6 cells per mL in RPMI 1640 GlutaMax medium supplemented with 10% human AB serum, penicillin/streptomycin (Invitrogen), PMA (phorbol 12-myristate 13-acetate; 20 ng/mL; Sigma-Aldrich) and ionomycin (1 μmol/L). After 2 to 3 days of activation, viable cells were separated by Ficoll-Paque density-gradient centrifugation and washed twice with RPMI 1640 GlutaMax medium, then cultured in RPMI 1640 GlutaMax medium supplemented with 10% human AB serum and 100 U/mL pro-IL2.
Analysis of phosphorylated AKT at Ser 473 levels in T cell lymphoblast cultures was performed once sufficient cells were available for the analysis (e.g. 6-12 days after starting the culture with pro-IL2).
The activity of Compound (A) was assessed in (i) the absence or (ii) the presence of T cell activation by receptor cross-linking with OKT3:
(i) Incubation of APDS1 and APDS2 patient cells for 30 minutes with Compound (A) at different concentrations (0, 1, 3, 10, 30, 100 and 200 nM). A positive control for pAKT staining (simulated cells with OKT3) was included (8×10^6 cells/patient).
(ii) Incubation of APDS1 and APDS2 patient cells for 30 minutes with Compound (A) at different concentrations (0, 1, 3, 10, 30, 100 and 200 nM) stimulated with anti-CD3 (OKT3; T cell receptor activation).
Corresponding assays were performed with T cell lymphoblasts derived from healthy donors (CTRL).
(In general: Flow cytometry measures light scatter and fluorescence of single cells or particles in a stream.)

Structures are written as SMILES. Like-named read-outs stand apart in the source and are kept apart here.

In the case of `[O-][n+]1cccc(-c2nc3c(Cl)cccc3cc2[C@@H](Nc2ncnc3cccnc23)C(F)(F)F)c1` [Compound (A), N—{(R)-1-[8-Chloro-2-(1-oxypyridin-3-yl)quinolin-3-yl]-2,2,2-trifluoroethyl}pyrido[3,2-d]pyrimidin-4-ylamine], the Tolerability entry in data set [1] (APDS patients) is reported as “well tolerated”. In data set [1] (three APDS patients), the Clinical outcome was “some clinical and immunological improvements together with disease activity improvement”. For the same compound, the “Inhibition of pS6^S235/236 expression (in words)” value in data set [2] (CD3+ and CD8+ cells, one APDS2 patient) is reported as “showed potent inhibition”. The IC50 was at most 100 nM in data set [2] (CD3+ and CD8+ cells, one APDS2 patient, based on concentration-response curves, read-out: IC50, inhibition of pS6^S235/236 expression); 51 nM in data set [2] (CD3+ cells, 3 APDS1 patients, read-out: Geomean IC50 (adjusted for free concentration), pS6^S235/236 expression); 36 to 67 nM in data set [2] (CD3+ cells, 3 APDS1 patients, read-out: Range of IC50 (adjusted for free concentration), pS6^S235/236 expression); 41 nM in data set [2] (CD4+ cells, 3 APDS1 patients, read-out: Geomean IC50 (adjusted for free concentration), pS6^S235/236 expression); 29 to 56 nM in data set [2] (CD4+ cells, 3 APDS1 patients, read-out: Range of IC50 (adjusted for free concentration), pS6^S235/236 expression); 56 nM in data set [2] (CD8+ cells, 3 APDS1 patients, read-out: Geomean IC50 (adjusted for free concentration), pS6^S235/236 expression). In addition, the IC50 in data set [2] (CD8+ cells, 3 APDS1 patients, read-out: Range of IC50 (adjusted for free concentration), pS6^S235/236 expression) was 40 to 72 nM; in data set [3] (APDS1 and APDS2 patient-derived T cell lymphoblasts, absence of T cell activation by OKT3, read-out: IC50 range, pAKT expression) it was 3 to 20 nM; in data set [3] (APDS1 and APDS2 patient-derived T cell lymphoblasts, presence of T cell activation by OKT3, read-out: IC50 range, pAKT expression) it was 7 to 50 nM; in data set [3] (T lymphoblasts from 3 APDS1 patients, OKT3 +, read-out: Geomean IC50, inhibition of pAKT^S473 expression) it was 21 nM; in data set [3] (T lymphoblasts from 3 APDS1 patients, OKT3 +, read-out: Range of IC50, inhibition of pAKT^S473 expression), 7 to 50 nM; in data set [3] (T lymphoblasts from 3 APDS1 patients, OKT3 −, read-out: Geomean IC50, inhibition of pAKT^S473 expression), 8 nM. Besides, the IC50 is 3 to 12 nM in data set [3] (T lymphoblasts from 3 APDS1 patients, OKT3 −, read-out: Range of IC50, inhibition of pAKT^S473 expression); 28 nM in data set [3] (T lymphoblasts from 3 APDS2 patients, OKT3 +, read-out: Geomean IC50, inhibition of pAKT^S473 expression); 21 to 33 nM in data set [3] (T lymphoblasts from 3 APDS2 patients, OKT3 +, read-out: Range of IC50, inhibition of pAKT^S473 expression); 13 nM in data set [3] (T lymphoblasts from 3 APDS2 patients, OKT3 −, read-out: Geomean IC50, inhibition of pAKT^S473 expression); 8 to 20 nM in data set [3] (T lymphoblasts from 3 APDS2 patients, OKT3 −, read-out: Range of IC50, inhibition of pAKT^S473 expression); 16 nM in data set [3] (T lymphoblasts from 3 healthy donors, OKT3 +, read-out: Geomean IC50, inhibition of pAKT^S473 expression). Besides, in data set [3] (T lymphoblasts from 3 healthy donors, OKT3 +, read-out: Range of IC50, inhibition of pAKT^S473 expression), the IC50 lay within 9 to 50 nM. Besides, in data set [2] (three T cell subsets, three APDS1 patients), the “Inhibition of pS6^S235/236 signal (in words)” value is reported as “showed inhibition”. Further, the “Inhibition of pAKT^S473 expression (in words)” value in data set [3] (basal and activated T lymphoblast cultures) is “potently inhibited”.
